In patent publication US8318809B2, “Compositions and methods for treating jellyfish stings” (priority 2006, dated 2012):
Counter-ions that a name gives are not always drawn.

Assays:
[1] = test system: sea wasp (Chiropsalmus quadumanus) stings; test: Jellyfish sting test on inner forearm of human test subjects, sea wasp; assay type: in vivo; conditions: for maintenance of relief: 5% lidocaine in 80:20 water:propylene glycol, 5% benzocaine in 90:10 propylene glycol:acetone, control sites decreased after 2-3 h; for red rash at sting site: 5% lidocaine or 5% benzocaine formulations vs other treatments; for time to sting relief: 10% lidocaine in 50:50 water:propylene glycol, 10% benzocaine in 90:10 propylene glycol:acetone
From the text: These are the two most common types of stinging jellies that occur with frequency and/or regularity in normal swimming waters on the USA east coast north of Cape Canaveral.
(§1) Living healthy specimens were captured locally using trawls and dip-nets. They were maintained in flowing seawater aquariums (ca. 500 liters) for days-weeks; sea nettles maintained for long periods were fed live minnows (mummichugs).
Healthy, actively swimming jellyfish were used in all examples, and the same procedure was applied in all cases.
Stings from sea wasps were induced by manually holding a live specimen by its bell, and dragging the tentacles across the inner forearm of the test subject. […] Stings from the larger sea nettles were induced using tweezers to manually remove tentacles from living specimens and dragging them across the inner lower forearms of test subjects.
(§2) Products were applied to sting sites within 1-2 minutes unless otherwise noted below. […] Thus one forearm was used for each treatment effect, and each forearm included two sting sites: one received a treatment while the other served as an untreated control. Tests were either conducted simultaneously in duplicate using two subjects, or sequentially several hours apart using the same subject.

[2] = test system: tongue; test: Minimum response time to topically applied anesthetic on the tongue; assay type: in vivo, human; conditions: Example 5; 5 mg of pure compound applied to the tongue
Method: Two formulations were tested in the present example to test the minimum response time of the human body to topically applied lidocaine and benzocaine:
5 mg of pure benzocaine applied to the tongue

[3] = stated as known; cited from earlier work
[4] = Solubility in water; assay type: physicochemical; conditions: Example 13 remark
[5] = test system: jellyfish stings; test: Jellyfish sting test, jellyfish species not stated; assay type: in vivo, human; conditions: Example 20; 4% lidocaine hydrochloride in water
From the text: […] Healthy, actively swimming jellyfish were used in all examples, and the same procedure was applied in all cases. The same human test subjects were used in all experiments, in order to have continuity and be able to qualitatively compare treatment effects among experimental dates.
(§3) Stings from sea wasps were induced by manually holding a live specimen by its bell, and dragging the tentacles across the inner forearm of the test subject. Sea-wasps caused immediate stinging sensations. Stings from the larger sea nettles were induced using tweezers to manually remove tentacles from living specimens and dragging them across the inner lower forearms of test subjects. Sea-nettle stings were of the same or somewhat more intensity as those of sea wasps, but were not felt until about 15 s after contact, perhaps because the tentacles have visibly thicker gelatinous coatings.
as §2

[6] = test system: jellyfish stings; test: Beach surveys of beachgoers stung by a jellyfish; assay type: in vivo, human
Method: The beach surveys were conducted on beachgoers that stated they had been stung by a jellyfish. All participants voluntarily filled out an 8 question survey.
Locations: Tybee Island, Ga., Saint Simons Island, Ga., Hilton Head, S.C., Jacksonville beach, Fla., Daytona beach, Fla.
Time to application: Varied based on the person surveyed. Average times from sting to treatment ranged from 5 to 15 minutes.
Application to relief: Most respondents noted that they began to feel relief at the 1 minute mark. Based on an average level of affected area (less than 10% body coverage) the respondents noted virtually all the pain subsided by the 5 minute mark. (Most of the respondents who noted “some relief” departed within 2 minutes, which is the approximately time it took them to fill out the survey. Some of these respondents later returned to report total relief, but this is not shown in the data below). The results are presented in Table 3 and FIG. 2, below (total respondents: 232).

[7] = test system: sea nettle (hrysaora quinquecirrha) stings; test: Jellyfish sting test on inner forearm of human test subjects, sea nettle; assay type: in vivo
From the text: Two genera of jellyfish were used in examples 2-19 described below: Chiropsalmus quadumanus, a cubomedusa and member of the Scyphozoa, also known as the sea wasp; and another scyphozoan jellyfish, hrysaora quinquecirrha, commonly called the sea nettle. These are the two most common types of stinging jellies that occur with frequency and/or regularity in normal swimming waters on the USA east coast north of Cape Canaveral.
as §1
For examples 3-19, with the exception of the commercially available spray products and the meat tenderizer paste solution, all of the other test solutions were in liquid form and were applied using a one milliliter pipetter and sterile tips.
For examples 3-19 below, the following general procedures were followed. Healthy, actively swimming jellyfish were used in all examples, and the same procedure was applied in all cases. The same human test subjects were used in all experiments, in order to have continuity and be able to qualitatively compare treatment effects among experimental dates.
as §3
Products were applied to sting sites within 1-2 minutes unless otherwise noted below. […] Thus one forearm was used for each treatment effect, and each forearm included two sting sites: one received a treatment while the other served as an untreated control. […]

[8] = test system: nematocysts of sea nettle tentacles; test: Microscopy observations of nematocyst responses to product exposure; conditions: Example 11; pipetted onto tentacles in seawater, viewed at 60×; lidocaine as 10% solution in seawater
From the text: Tentacles were removed using tweezers from an actively swimming sea nettle, placed in a glass Petri dish in seawater collected from the jellyfish tank (same salinity), and viewed at 60× under a zoom stereomicroscope while various liquid chemicals were pipetted directly onto the tentacles.

[9] = test system: chigger bites; test: Chigger bite treatment, one subject; assay type: in vivo, human; conditions: Example 22; two bites per treatment; lidocaine as 4% solution in water
From the text: Subject received 6 chigger bites on inner thigh area. Subject applied the formulation to two of the chigger bites, treated two others with Chigger Rid®, a drug store product, and applied clear finger nail polish, a home remedy, to the final two bites.

[10] = test system: fire ant bites; test: Fire ant bite treatment, one subject; assay type: in vivo, human; conditions: Example 23
Method: The subject for this example had substantial experience with fire ant bites, with general symptoms of blistering, itching, pain associated with the bites. […] Subject received 7 fire ant bites while gardening outside. Subject applied the formulation to the seven bites approximately 15 minutes after the bites occurred.

[11] = 4% Lidocaine and water, pump or trigger spray, total respondents 232

In the case of `N` [Ammonia], the “treatment effect on sting pain” value ([1]; Example 3, sea wasps 2″ bell, meat tenderizer paste, ammonia and vinegar store-bought full strength, vs untreated control site) is reported as “increased the initial pain”.
With `CCOC(=O)c1ccc(N)cc1` [benzocaine] the “onset of localized numbness” value [2] was 30 s, the maintenance of relief ([1]; Example 3) was “maintained until the stinging sensation eventually decreased in control sites” and the “red rash at sting site” value ([1]; Example 3, sea wasps 2″ bell) was “substantially reduced”. For the same compound, the “time to sting relief” value ([1]; Example 4, sea wasp 3″ bell) was 60 to 90 s, the solubility in water [3] was “sparingly soluble in water” and the dissolves in water [4] was “does not dissolve in water”.
In the case of `CCN(CC)CC(=O)Nc1c(C)cccc1C` [lidocaine hydrochloride], the “time to initial pain relief after application” value [5] is reported as “around one”.
For `CCN(CC)CC(=O)Nc1c(C)cccc1C` [lidocaine], the “onset of localized numbness” value [2] was 30 s, the “time at which most respondents began to feel relief” value ([6]; 4% Lidocaine and water spray, 5 to 15 minutes from sting to treatment) was 1 min and the “time by which virtually all the pain subsided” value ([6]; 4% Lidocaine and water spray, affected area less than 10% body coverage) was at most 5 min. For the same compound, the “number of respondents: Much relief” value [6, 11] was 128, the “number of respondents: No relief” value [6, 11] was 0 and the “number of respondents: Some relief” value [6, 11] was 32. The “number of respondents: Total relief” value [6, 11] was 72, the maintenance of relief ([1]; Example 3) was “maintained until the stinging sensation eventually decreased in control sites” and the “red rash at sting site” value ([1]; Example 3, sea wasps 2″ bell) was “substantially reduced”. The “redness at the sting site” value ([1]; Example 4, 10% lidocaine formulation compared with 10% benzocaine formulation) was “appeared to reduce redness at the sting site more than the benzocaine formulation”, the “time to sting relief” value ([1]; Example 4, sea wasp 3″ bell) was 30 to 60 s and the rash ([1]; Example 6, 10% compared to 5% lidocaine in 80:20 water:propylene glycol) was “somewhat less pronounced”. For the same compound, the pain relief ([1]; Example 6, both 5% and 10% lidocaine in 80:20 water:propylene glycol, sea wasp 3″ bell, compared to no treatment) was “substantial pain relief”, the “time to substantial relief” value ([1]; Example 7, 10% lidocaine in 80:20 water:propylene glycol without acetic acid, sea wasps 2″ bell, untreated stinging lasted about 30 minutes) was “about 1 minute” and the “relief after delayed application” value ([1]; Example 8, 10% lidocaine in 80:20 water:propylene glycol applied 5 min after sting) was “provided relief as though applied immediately”. For the same compound, the time to relief ([1]; Example 8, 10% lidocaine in 80:20 water:propylene glycol applied immediately, sea wasp 2″ bell) was “approximately 1 minute”, the “performance as judged by the test subjects” value ([7]; Example 9, 10% lidocaine in water only compared with 10% lidocaine in 80:20 water:propylene glycol, sea nettle 6″ bell) was “slightly superior” and the “acted faster by” value ([7]; Example 16, 15% lidocaine in water compared with 10% lidocaine in water, sea nettle 4″ bell) was 10 to 15 s. For the same compound, the nematocyst firing [8] was “did not cause nematocysts from a new tentacle to fire”, the “itching of chigger bites after treatment” value [9] was “ceased itching within minutes of application with no further symptoms” and the blister formation ([10]; 4% lidocaine and water applied approximately 15 minutes after the bites) was “typical blisters did not form”. The “relief from pain and itching” value ([10]; 4% lidocaine and water applied to 7 bites approximately 15 minutes after the bites) was “complete relief from pain and itching”.
In the case of `NC(N)=O` [urea], the “effect on the soothing effect of lidocaine” value ([7]; Example 12, 10% urea added to 10% lidocaine in water) is reported as “did not appear to help or impede”.
